Reference: US9688702B2, “Alpha-amino boronic acid derivatives, selective immunoproteasome inhibitors” (Ares Trading S.A, priority 2011, dated 2017)
pIC50: −log10 of the molar value.

Key:
[1] = biological target: LMP7 (purified human immuno proteasome) (Homo sapiens, UniProt P28062); assay: Determination of LMP7 activity (fluorescence intensity assay, Suc-LLVY-AMC); type: biochemical; settings: for pIC50: 40 μM Suc-LLVY-AMC, 37° C.
Procedure: Measurement of LMP7 inhibition is performed in 384 well format based on fluorescence intensity assay.
(§1) Purified human immuno proteasome (0.5 nM) and serial diluted compounds in DMSO (range of concentrations from 10 μM to 38 pM) or controls (0.5% DMSO) are incubated for 30 minutes at 37° C. in assay buffer containing 50 mM Tris pH 7.4 and 0.03% SDS. The reaction is initiated by the addition of the fluorogenic peptide substrate, Suc-LLVY-AMC (Bachem I-1395), at a concentration of 40 μM. After 90 minutes of incubation at 37° C., fluorescence intensity is measured at λex=350 nm and λem=450 nm with a fluorescence reader (BMG Pherastar reader or equivalent).
as §1, with “proteasome (0.25” for “proteasome (0.5”

[2] = biological target: Beta5 (purified human constitutive proteasome) (Homo sapiens, UniProt P28074); assay: Determination of Beta5 activity (fluorescence intensity assay, Suc-LLVY-AMC); type: biochemical; settings: purified human constitutive proteasome 1.0 nM, 40 μM Suc-LLVY-AMC, 37° C.
Procedure: Measurement of Beta5 inhibition is performed in 384 well format based on fluorescence intensity assay.
as §1, with “human constitutive” for “human immuno”, “proteasome (1.0” for “proteasome (0.5”, “(Bachem 1-1395),” for “(Bachem I-1395),”

[3] = purified human immuno proteasome 0.5 nM

Selectivity LMP7 vs Beta5 [1]	pIC50 [1, 3]	pIC50 [2]	pIC50 ([1]; purified human immuno proteasome 0.25 nM (examples 79, 80, 83, 84, 85, 87, 88, 89, 90, 91, 93, 94, 96, 97, 101 and 110))	SMILES
+++ (+++: Selectivity > 30)	6.30 to 7.30	< 5.30		CCc1cccc(C[C@H](NC(=O)CCc2cn(-c3ccccc3)nn2)B(O)O)c1 [Example 58, (R)-(2-(3-ethylphenyl)-1-(3-(1-phenyl-1H-1,2,3-triazol-4-yl)propanamido)ethyl)boronic acid]
+++ (+++: Selectivity > 30)	> 7.30	6.30 to 7.30		CCc1cccc(C[C@H](NC(=O)CCn2cc(-c3ccccc3)nn2)B(O)O)c1 [Example 52, (R)-(2-(3-ethylphenyl)-1-(3-(4-phenyl-1H-1,2,3-triazol-1-yl)propanamido)ethyl)boronic acid]
++ (++: 10 < Selectivity < 30)	> 7.30	> 7.30		O=C(CCc1ccccc1F)N[C@@H](Cc1coc2ccccc12)B(O)O [Example 81, (R)-(2-(benzofuran-3-yl)-1-(3-(2-fluorophenyl)propanamido)ethyl) boronic acid]
+ (+: Selectivity < 10)	> 7.30	6.30 to 7.30		O=C(CCn1cnc2ccccc21)N[C@@H](Cc1ccc(OC(F)(F)F)cc1)B(O)O [Example 51, (R)-(1-(3-(1H-benzo[d]imidazol-1-yl)propanamido)-2-(4-(trifluoromethoxy)phenyl)ethyl)boronic acid]
+++ (+++: Selectivity > 30)		> 7.30	> 7.30	COc1ccc(-n2cc(CCC(=O)N[C@@H](Cc3coc4ccccc34)B(O)O)nn2)cc1 [Example 90, (R)-(2-(benzofuran-3-yl)-1-(3-(1-(4-methoxyphenyl)-1H-1,2,3-triazol-4-yl)propanamido)ethyl)boronic acid]
+++ (+++: Selectivity > 30)	> 7.30	5.30 to 6.30		COc1ccc(C(=O)CC(Cc2ccccc2)C(=O)N[C@@H](Cc2cccc(C(F)(F)F)c2)B(O)O)cc1 (mixture of isomers) [Example 27, {(1R)-1-{[2-(RS)-benzyl-4-(4-methoxyphenyl)-4-oxobutanoyl]amino}-2-[3-(trifluoromethyl)phenyl]ethyl}boronic acid]
	5.30 to 6.30	< 5.30		CC(CC(=O)c1ccccc1)C(=O)N[C@@H](Cc1ccsc1)B(O)O (mixture of isomers) [Example 10, [(1R)-1-[(2-(RS)-methyl-4-oxo-4-phenylbutanoyl)amino]-2-(3-thienyl)ethyl]boronic acid]
++ (++: 10 < Selectivity < 30)	6.30 to 7.30	5.30 to 6.30		O=C(CCc1noc(-c2ccccc2)n1)N[C@@H](Cc1ccsc1)B(O)O [Example 37, [(1R)-1-{[3-(5-phenyl-1,2,4-oxadiazol-3-yl)propanoyl]amino}-2-(3-thienyl)ethyl]boronic acid]
++ (++: 10 < Selectivity < 30)	> 7.30	6.30 to 7.30		O=C(CCn1cnc2ccccc21)N[C@@H](Cc1cccc(C(F)(F)F)c1)B(O)O [Example 38, {(1R)-1-{[3-(1H-benzimidazol-1-yl)propanoyl]amino}-2-[3-(trifluoromethyl)phenyl]ethyl}boronic acid]
++ (++: 10 < Selectivity < 30)	> 7.30	6.30 to 7.30		COc1ccc(-n2cc(CCC(=O)N[C@@H](Cc3ccc4ccccc4c3)B(O)O)nn2)cc1 [Example 100, (R)-(1-(3-(1-(4-methoxyphenyl)-1H-1,2,3-triazol-4-yl)propanamido)-2-(naphthalen-2-yl)ethyl)boronic acid]
+ (+: Selectivity < 10)	> 7.30	6.30 to 7.30		Cc1nc2ccccc2n1CCC(=O)N[C@@H](Cc1ccsc1)B(O)O [Example 55, (R)-(1-(3-(2-methyl-1H-benzo[d]imidazol-1-yl)propanamido)-2-(thiophen-3-yl)ethyl)boronic acid]
